The values below are quoted from earlier work in US8124767B2, “Luminescence biotin-transition metal complex conjugate, and method of amplifying signal using the same” (Samsung Electronics Co., Ltd., priority 2008, dated 2012).

Structures are written as SMILES. Read-outs that look alike come from different tables or passages of the source.

In one data set the target is T1, avidin (Gallus gallus, UniProt P02701).
T1 construct: purchased Aldrich
The following applies: HABA, comparison value; read-out: Kd (binding to avidin); cited from earlier work.

The conditions of data set [1]: excitation 310 nm, 0.02 mM 2-MeTHF, cited from earlier work.

T1 sequence (P02701 25-152): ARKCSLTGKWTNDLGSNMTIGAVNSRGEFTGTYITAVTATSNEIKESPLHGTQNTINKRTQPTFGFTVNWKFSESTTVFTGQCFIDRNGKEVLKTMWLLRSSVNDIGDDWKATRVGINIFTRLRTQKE

Usually Kd stands for the equilibrium constant for the complex coming apart. In the case of `O=C(O)c1ccccc1N=Nc1ccc(O)cc1` [HABA, 4,4′-hydroxyazobenzene-2-carboxylic acid], the equilibrium dissociation constant (Kd) on avidin is 6 µM.

Take `Cc1cc(-n2c3ccccc3c3ccccc32)cc(-n2c3ccccc3c3ccccc32)c1` [Probe 5mCP]: in data set [1] (77 K), the “T360 nm, lifetime of the donor peak” value is reported as 8.2 ns and the “T411 nm, lifetime of the donor peak” value is reported as 7.0 s. In data set [1] (298 K), the “T360 nm, lifetime of the donor peak” value is 6.6 ns.
